The target in data set [1] is T1, Taq polymerase (Thermus aquaticus, UniProt P19821).
T1 construct: purchased ABI (Applied Biosystems)
In words: Taq polymerase inhibition by Taqman real time PCR (gene amplification, CT values). The class given is biochemical. Particulars: for 18S amplification / Taq polymerase activity: spiked into heparin and treated with heparinase; for 18S amplification: same conditions; for gene amplification (polymerase activity) after treatment with heparinase: heparinase 2 hours at room temperature, OS-CS 30 ng, heparin 25 mU of lot C1 (FIG. 2B). The protocol:
Heparinase treatment: Heparin was treated with heparinase I (1:1 unit:unit reaction unless otherwise noted) for 2 hours at 25° C. in a buffer containing 4 mM Tris-HCl pH 7.5, 0.8 mM CaCl, 10 mM NaCl, and 20 U of RNase inhibitor (ABI). After treatment, the heparin was diluted to a final volume of 50 μl and serial dilutions were prepared in DEPC water as specified. Where indicated, other GAGs and oversulfated GAGs (dermatan sulfate, chondroitin sulfate, and heparan sulfate) were treated with heparinase under the same conditions as described above.
Screening Assay: cDNA was generated using total RNA from MDA-MB-231 human breast cancer cell line extracted using Trizol reagent (Invitrogen, Carlsbad, Calif.) as per manufacturer's instructions. For each cDNA reaction 1 μg total RNA was reverse transcribed using High Capacity cDNA Reverse Transcription Kit (Applied Biosystems, Foster City Calif.) in a volume of 20 μl and further diluted in DEPC water to 100 μl final volume. The concentration of cDNA was determined using Quant-iT OliGreen ssDNA Reagent (Invitrogen). For each Taqman® reaction, 25 ng of cDNA in a 2.5 μl volume were mixed with 2.5 μl of each dilution of heparinase-treated heparin or hypersulfated GAGs and then subjected to real time PCR using Taqman® Gene Expression assay for human 18S rRNA (20×) and 2× Universal PCR master mix (ABI) in a 25 μl reaction. Amplification levels of 18S are expressed as CT values. CT values represent the cycle at which amplification of a target gene is first detected. The amplification was analyzed using manual settings with a threshold value of 0.1 and the SDS2.3 software from ABI. […] Quantification of the oversulfated GAGs was performed by establishing a cutoff at the minimum concentration of synthetic OS-CS that completely blocks Taq polymerase (500 pg) and tittering all the samples until the activity of Taq polymerase was restored.
Real time-PCR (Taqman® PCR) is a highly sensitive method for detecting changes in gene expression. Gene amplification depends on a thermostable DNA polymerase from Thermus aquaticus (Taq pol). […] Shown in FIG. 1 are the levels of 18S amplification from 25 ng cDNA derived from MDA-MB-231 cells as determined by Taqman® PCR. While the 18S rRNA is used here, any RNA or DNA template is suitable. Addition of progressively higher amounts of heparin induces a corresponding reduction in Taq polymerase activity that can be monitored by assessing 18S cDNA amplification. […] Treatment of heparin with 1 unit of heparinase for 2 hrs at 25° C. overcomes the blocking activity of up to 50 mU of heparin (FIG. 1A).
To compare the use of different template sequences to measure the inhibition of Taq polymerase activity by oversulfated GAGs, heparin preparations were processed and RNA was isolated as detailed in Example 1, except that cDNAs were generated and amplified from the Actin B and GAPDH RNA sequences, in addition to the 18S rRNA.
Table 1 compares the effects of different oversulfated GAGs on the amplification of 18S, Actin B, and GAPDH sequences by Taq polymerase, as shown by mean cycle thresholds (CT) of amplification detection. The CT value indicating no inhibition of Taq polymerase activity varied slightly by template, but was maximally <20. […] Addition of progressively higher amounts of over sulfated chondroitin sulfate (OS-CS), oversulfated dermatan sulfate (OS-DS), and oversulfated heparan sulfate (OS-HS) to cDNA induced a corresponding reduction in Taq polymerase amplification of 18S, Actin B, and GAPDH.
For orientation: Quantitative PCR measures a nucleic acid by following its amplification.

Data set [2] relates to porcine model. Particulars: 5 mg/kg i.v. in bolus; cited from earlier work.
[3] abbreviates: any concentration tested (0-125 ng).

Results on eight substances are retold here after patent publication US20110165578A1, “METHODS FOR DETECTING AND QUANTIFYING OVERSULFATED GLYCOSAMINOGLYCANS” (priority 2008, published 2011).

T1 sequence (P19821 whole entry): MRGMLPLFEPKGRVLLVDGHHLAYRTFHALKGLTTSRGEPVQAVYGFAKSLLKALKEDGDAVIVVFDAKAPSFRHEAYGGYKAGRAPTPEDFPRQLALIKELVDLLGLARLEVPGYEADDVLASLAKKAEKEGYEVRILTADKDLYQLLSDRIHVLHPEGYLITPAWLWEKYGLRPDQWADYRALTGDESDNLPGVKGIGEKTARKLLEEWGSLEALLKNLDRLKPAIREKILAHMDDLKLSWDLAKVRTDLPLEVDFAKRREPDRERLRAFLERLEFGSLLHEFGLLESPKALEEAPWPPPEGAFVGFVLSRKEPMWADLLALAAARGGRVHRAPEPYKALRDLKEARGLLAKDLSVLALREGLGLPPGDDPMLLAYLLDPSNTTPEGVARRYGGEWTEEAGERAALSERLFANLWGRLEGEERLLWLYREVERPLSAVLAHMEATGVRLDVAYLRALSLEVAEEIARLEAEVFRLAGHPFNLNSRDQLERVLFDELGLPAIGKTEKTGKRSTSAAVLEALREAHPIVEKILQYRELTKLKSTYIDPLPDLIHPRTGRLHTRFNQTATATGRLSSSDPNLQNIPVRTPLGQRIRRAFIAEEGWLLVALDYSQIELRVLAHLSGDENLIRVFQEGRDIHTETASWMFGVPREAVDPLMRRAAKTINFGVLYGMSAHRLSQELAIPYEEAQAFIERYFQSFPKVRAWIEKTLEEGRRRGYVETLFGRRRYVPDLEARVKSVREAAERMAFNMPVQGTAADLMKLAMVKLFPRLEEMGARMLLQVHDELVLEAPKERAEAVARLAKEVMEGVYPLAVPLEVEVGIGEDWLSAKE

As for oversulfated dermatan sulfate [OS-DS], the “mean cycle threshold (CT) of amplification detection” value (“mean cycle threshold (CT)” for short) is given as 14.13 in data set [1] (18S template, 0.3 ng); 18.29 in data set [1] (18S template, 0.9 ng); 40.00 in data set [1] (18S template, 2.7 ng); 40.00 in data set [1] (18S template, 8.3 ng); 40.00 in data set [1] (18S template, 25 ng); 25.45 in data set [1] (Actin B template, 0.3 ng). Moreover, the “mean cycle threshold (CT)” value in data set [1] (Actin B template, 0.9 ng) came out at 31.85; in data set [1] (Actin B template, 2.7 ng), 40.00; in data set [1] (Actin B template, 8.3 ng), 40.00; in data set [1] (Actin B template, 25 ng) it was 40.00; in data set [1] (GAPDH template, 0.3 ng), 24.76; in data set [1] (GAPDH template, 0.9 ng), 39.12. Moreover, the “mean cycle threshold (CT)” value in data set [1] (GAPDH template, 2.7 ng) amounted to 40.00; in data set [1] (GAPDH template, 8.3 ng), 40.00; in data set [1] (GAPDH template, 25 ng) it was 40.00. Further, the 18S amplification entry in data set [1] is “significantly reduced”.
On to oversulfated heparan sulfate [OS-HS], for which the “mean cycle threshold (CT)” value in data set [1] (18S template, 0.3 ng) worked out at 14.49; in data set [1] (18S template, 0.9 ng) it was 26.00; in data set [1] (18S template, 2.7 ng), 40.00; in data set [1] (18S template, 8.3 ng) it was 40.00; in data set [1] (18S template, 25 ng), 40.00; in data set [1] (Actin B template, 0.3 ng) it was 27.12. In addition, the “mean cycle threshold (CT)” value in data set [1] (Actin B template, 0.9 ng) amounted to 40.00; in data set [1] (Actin B template, 2.7 ng), 40.00; in data set [1] (Actin B template, 8.3 ng) it was 40.00; in data set [1] (GAPDH template, 0.3 ng) it was 25.98; in data set [1] (GAPDH template, 0.9 ng) it was 40.00; in data set [1] (GAPDH template, 2.7 ng) it was 40.00. Moreover, the “mean cycle threshold (CT)” value in data set [1] (GAPDH template, 8.3 ng) was 40.00; in data set [1] (GAPDH template, 25 ng) it was 40.00. Also, the 18S amplification result in data set [1] is on record as “significantly reduced”.
For the substance Heparan sulfate [HS], the “mean cycle threshold (CT)” value stood at 13.62 in data set [1] (18S template, 8.3 ng); 13.66 in data set [1] (18S template, 25 ng); 13.69 in data set [1] (18S template, 62.5 ng); 13.96 in data set [1] (18S template, 125 ng); 14.36 in data set [1] (18S template, 250 ng); 18.36 in data set [1] (Actin B template, 25 ng). Moreover, the “mean cycle threshold (CT)” value in data set [1] (GAPDH template, 8.3 ng) came to 17.68; in data set [1] (GAPDH template, 25 ng), 18.37. In data set [1] (at comparable concentrations), the “Taq polymerase amplification of any of the tested templates (18S, Actin B, GAPDH)” value was “did not inhibit”. The Taq polymerase activity entry in data set [1] (setting [3]) is on record as “did not inhibit”.
As for heparin, in data set [1] (1 unit of heparinase, 2 hrs at 25° C., 18S (FIG. 1A)), the “amount of heparin whose blocking activity is overcome by heparinase treatment” value is “up to 50 mU”. Besides, in data set [1], the “gene amplification (polymerase activity) after treatment with heparinase” value is reported as “restores gene amplification”.
As for Chondroitin sulfate type A [CS-A], the Taq polymerase activity entry in data set [1] (setting [3]) is “did not inhibit”.
For Chondroitin sulfate E [CS-E], in data set [1] (highest concentration tested (125 ng)), the Taq polymerase activity entry is “trace of inhibitory effect”.
In the case of “oversulfated chondroitin sulfate [OS-CS]”, in data set [1] (18S template, 25 ng cDNA (FIG. 1C)), the “amount that completely blocked Taq polymerase mediated 18S cDNA amplification” value is reported as 500 pg. For the same substance, the “mean cycle threshold (CT)” value in data set [1] (18S template, 0.08 ng added to cDNA) is given as 13.81; in data set [1] (18S template, 0.25 ng) it was 14.38; in data set [1] (18S template, 0.5 ng), 18.89; in data set [1] (18S template, 0.75 ng), 31.20; in data set [1] (18S template, 1 ng), 40.00; in data set [1] (18S template, 1.25 ng) it was 40.00. Also, the “mean cycle threshold (CT)” value amounted to 18.48 in data set [1] (Actin B template, 0.08 ng); 26.89 in data set [1] (Actin B template, 0.25 ng); 38.84 in data set [1] (Actin B template, 0.5 ng); 40.00 in data set [1] (Actin B template, 0.75 ng); 40.00 in data set [1] (Actin B template, 1 ng); 40.00 in data set [1] (Actin B template, 1.25 ng). The “mean cycle threshold (CT)” value in data set [1] (GAPDH template, 0.08 ng) is given as 17.22; in data set [1] (GAPDH template, 0.25 ng) it was 25.13; in data set [1] (GAPDH template, 0.5 ng) it was 40.00; in data set [1] (GAPDH template, 0.75 ng), 40.00; in data set [1] (GAPDH template, 1 ng) it was 40.00; in data set [1] (GAPDH template, 1.25 ng) it was 40.00. Besides, the “limit of detection in heparin” value in data set [1] (calculated from 500 pg block and heparin potency 6.25 μg/U) is 0.16 % (w/w). For the same substance, the “gene amplification (polymerase activity) after treatment with heparinase” value in data set [1] is “not”. In addition, in data set [1], the 18S amplification entry was “significantly reduced”. For the same substance, the “reproduction of the clinical syndrome (adverse events)” value in data set [2] is recorded as “partially reproduce the clinical syndrome”.
For dermatan sulfate [DS], in data set [1] (setting [3]), the Taq polymerase activity entry is listed as “did not inhibit”.
